Results: ChEMBL document CHEMBL1137804, “Natural product-based anti-HIV drug discovery and development facilitated by the NCI developmental therapeutics program” (J Nat Prod, 2001)
Converted amounts (≈) assume the structure as drawn.

Key:
[1] = test system: Human immunodeficiency virus 2; test: Antiviral activity against HIV2; type: functional, organism-based
[2] = Therapeutic index, ratio of cytotoxicity against human MT2 cells to EC50 for HIV1 LAI; type: cell-based; details: read-out: TI
[3] = target: Human immunodeficiency virus type 1 integrase (Human immunodeficiency virus 1, UniProt Q7ZJM1); test: Inhibition of HIV1 integrase-catalyzed disintegration activity
[4] = test system: Human immunodeficiency virus 1; test: Antiviral activity against HIV1 LAI in human MT2 cells assessed as virus-induced cytopathic effect after 72 hrs; type: functional; details: Human immunodeficiency virus 1, LAI, MT2, 72 h; read-out: ED50 (the source's name)
[5] = target: Human immunodeficiency virus type 1 reverse transcriptase (Human immunodeficiency virus 1, UniProt Q72547); test: Inhibition of HIV1 reverse transcriptase
[6] = test system: Human immunodeficiency virus 1; test: Antiviral activity against HIV1 RF in human CEM-SS cells assessed as inhibition of virus-induced cytopathic effect; type: functional, organism-based; details: Human immunodeficiency virus 1, RF
[7] = Therapeutic index, ratio of cytotoxicity against human CEM-SS cells to EC50 for HIV1 RF; type: cell-based; details: read-out: TI
[8] = Therapeutic index, ratio of cytotoxicity against human H9 cells to EC50 for HIV1 RF; type: cell-based; details: read-out: TI
[9] = test system: Human immunodeficiency virus 1; test: Antiviral activity against HIV1 RF in human H9 cells assessed as inhibition of virus-induced cytopathic effect by formazan-based conventional colorimetric technique; type: functional, organism-based; details: Human immunodeficiency virus 1, RF
[10] = test system: Human immunodeficiency virus 1; test: Antiviral activity against azidothymidine-resistant HIV1 G9106; type: functional, organism-based; details: Human immunodeficiency virus 1, G9106
[11] = test system: Human immunodeficiency virus 1; test: Antiviral activity against pyridinone-resistant HIV1 A17; type: functional, organism-based; details: Human immunodeficiency virus 1, A17
[12] = test system: Human immunodeficiency virus 1; test: Antiviral activity against HIV1 in human CEM-SS cells assessed as inhibition of virus-induced cytopathic effect; type: functional, organism-based; details: Human immunodeficiency virus 1, CEM-SS
[13] = Therapeutic index, ratio of cytotoxicity against human H9 cells to EC50 for HIV1 3B; type: cell-based; details: read-out: TI
[14] = Therapeutic index, ratio of cytotoxicity against human MT2 cells to EC50 for HIV1 RF; type: cell-based; details: read-out: TI
[15] = test system: Human immunodeficiency virus 1; test: Antiviral activity against HIV1 RF in human MT2 cells assessed as virus-induced cytopathic effect after 72 hrs; type: functional; details: Human immunodeficiency virus 1, RF, MT2, 72 h; read-out: ED50 (the source's name)
[16] = test system: Human immunodeficiency virus 1; test: Antiviral activity against HIV1 3B in human H9 cells assessed as inhibition of virus-induced cytopathic effect by formazan-based conventional colorimetric technique; type: functional, organism-based; details: Human immunodeficiency virus 1, 3B
H9 = test: Cytotoxicity against human H9 cells; type: cell-based
[17] = test system: Human immunodeficiency virus 1; test: Antiviral activity against HIV1 Rojo in human CEM cells; type: functional, organism-based; details: Human immunodeficiency virus 1, Rojo, CCRF-CEM
[18] = test system: Human immunodeficiency virus 1; test: Antiviral activity against HIV1 RF in human CEM cells; type: functional, organism-based; details: Human immunodeficiency virus 1, RF, CCRF-CEM

Human immunodeficiency virus type 1 integrase, sequence (Q7ZJM1 whole entry): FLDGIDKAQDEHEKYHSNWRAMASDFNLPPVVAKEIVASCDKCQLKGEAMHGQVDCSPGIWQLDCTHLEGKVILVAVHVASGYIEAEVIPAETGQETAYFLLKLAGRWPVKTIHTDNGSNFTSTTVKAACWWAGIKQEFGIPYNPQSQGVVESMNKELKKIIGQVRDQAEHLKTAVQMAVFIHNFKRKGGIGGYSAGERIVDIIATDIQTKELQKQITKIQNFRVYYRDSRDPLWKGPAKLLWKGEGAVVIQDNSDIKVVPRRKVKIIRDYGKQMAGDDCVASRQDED

Compound CSC[C@H](NC(=O)COc1cccc2cnccc12)C(=O)N[C@@H](Cc1ccccc1)[C@H](O)C(=O)N1CSC(C)(C)[C@H]1C(=O)NC(C)(C)C has an EC50 [1] of 20 nM.
Work on O=C(/C=C/c1ccc(O)c(O)c1)O[C@@H]1C[C@](O)(C(=O)O)C[C@@H](OC(=O)/C=C/c2ccc(O)c(O)c2)[C@H]1O yielded a selectivity ratio [2] of 150, an IC50 [3] of 1280 nM and an EC50 [4] of 1 µg/mL (≈ 1.94 µM).
In the case of O=C(O[C@@H]1C[C@](OC(=O)c2cc(O)c(O)c(O)c2)(C(=O)O)C[C@@H](OC(=O)c2cc(O)c(O)c(O)c2)[C@H]1OC(=O)c1cc(O)c(O)c(O)c1)c1cc(O)c(O)c(O)c1, the IC50 [5] is reported as 800 nM, the EC50 [6] is reported as 500 nM and the selectivity ratio [7] is reported as 20.
CSC[C@H](NC(=O)COc1cccc2cnccc12)C(=O)N[C@@H](Cc1ccccc1)[C@H](O)C(=O)N1CSC[C@H]1C(=O)NC(C)(C)C showed a selectivity ratio [8] greater than 4.6 and an EC50 [9] of 20 nM.
For CC(C)=CCOc1c(CC=C(C)C)c(O)nc2ccccc12, the EC50 [6] was 1640 nM and the selectivity ratio [7] was 17.
For CN1CCCCC1c1c(O)cc(O)c2c(=O)cc(-c3ccccc3)oc12 (centres undefined), the EC50 [6] was 260 nM and the selectivity ratio [7] was 3.
COC(=O)C(=O)O[C@]1(C(=O)O)C[C@@H](OC(=O)/C=C/c2ccc(O)c(O)c2)[C@H](O)[C@H](OC(=O)/C=C/c2ccc(O)c(O)c2)C1 gave a selectivity ratio [2] of 87, an IC50 [3] of 946 nM and an EC50 [4] of 4 µg/mL (≈ 6.64 µM).
Compound CCCc1cc(=O)oc2c3c(c4c(c12)OC(C)(C)CC4)O[C@@H](C)[C@H](C)[C@@H]3O [7,8-DIHYDROCALANOLIDE B] has an EC50 [6] of 100 nM and a selectivity ratio [7] of 99.8.
With C=CC(C)(C)C1(CC=C(C)C)C(=O)Nc2ccccc2C1=O (centres undefined) [BUCHAPINE] the IC50 [5] was 10000 nM, the EC50 [6] was 940 nM and the selectivity ratio [7] was 31.
With CCCc1cc(=O)oc2c3c(c4c(c12)OC(C)(C)C=C4)O[C@H](C)[C@@H](C)[C@@H]3O [CALANOLIDE A] the EC50 [10] was no more than 30 nM, the EC50 [6] was 200 nM and the EC50 [11] was no more than 600 nM. For the same compound, the selectivity ratio [7] was 103.
For CC(C)=CCC[C@]1(C)C=Cc2c(ccc3c2C(=O)C(O)=C(C2=C(C4=C(O)C(=O)c5c(ccc6c5C=C[C@@](C)(CCC=C(C)C)O6)C4=O)C(=O)c4c(ccc5c4C=C[C@@](C)(CCC=C(C)C)O5)C2=O)C3=O)O1 [CONOCURVONE], the EC50 [12] was 20 nM.
Compound CCCc1cc(=O)oc2c3c(c4c(c12)OC(C)(C)C=C4)O[C@@H](C)[C@H](C)[C@@H]3O [COSTATOLIDE] has an EC50 [6] of 200 nM and a selectivity ratio [7] greater than 20.
Compound O=c1[nH]cnc2c1ncn2[C@H]1CC[C@@H](CO)O1 [DIDANOSINE] has a selectivity ratio [8] of 1760 and a selectivity ratio [13] of 1760.
Work on Cc1cc(O)c(C=O)c2c1C(=O)Oc1c(COC(=O)/C=C/C(=O)O)c(O)c(C(=O)O)c(C)c1O2 [FUMARPROTOCETRARIC ACID] yielded a selectivity ratio [14] greater than 4.61 and an EC50 [15] of 8400 nM.
Work on Nc1ccn([C@@H]2CS[C@H](CO)O2)c(=O)n1 [LAMIVUDINE] yielded an EC50 [16] of 60 nM and an EC50 [9] of 60 nM.
With Nc1ncnc2c1ncn2[C@@H]1O[C@H](CO)C[C@@H]1F [LODENOSINE] the selectivity ratio [8] was greater than 17, the EC50 [16] was 1160 nM and the EC50 [9] was 1160 nM. For the same compound, the selectivity ratio [13] was greater than 17.
Work on COc1cc(C)cc2c(-c3c(O)cc(O)c4c3C[C@@H](C)N[C@@H]4C)cc(-c3cc(-c4c(O)cc(O)c5c4C[C@@H](C)N[C@@H]5C)c4cc(C)cc(OC)c4c3O)c(O)c12 [MICHELLAMINE A] yielded an EC50 [12] of 1000 nM.
With CO[C@@H]1C[C@@H](C[C@H]2CC[C@H](C)[C@H]([C@@H](C)C(=O)O)O2)O[C@]2(O[C@](C)([C@H]3CC[C@@](C)([C@@H]4O[C@@H]([C@H]5O[C@@](O)(CO)[C@H](C)C[C@@H]5C)C[C@@H]4C)O3)C[C@H]2C)[C@@H]1C [NIGERICIN] the EC50 [9] was 6 nM and the IC50 (H9) was 140 nM.
Compound COc1cc2c[n+](C)c3c4cc5c(cc4ccc3c2cc1OC)OCO5 [NITIDINE CHLORIDE] has an EC50 [6] of 14000 nM and a selectivity ratio [7] of 3.
Compound C=CC(C)(CC/C=C(\C)CCC=C(C)C)c1cc(O)c(O)c(-c2cc(C(C)(C=C)CC/C=C(\C)CCC=C(C)C)cc(O)c2O)c1 (centres undefined) [PELTATOL A] has an EC50 [12] of 8000 nM.
CC(C)CC(=O)N[C@H](C(=O)N[C@H](C(=O)N[C@@H](CC(C)C)[C@@H](O)CC(=O)N[C@@H](C)C(=O)N[C@@H](CC(C)C)[C@@H](O)CC(=O)O)C(C)C)C(C)C [PEPSTATIN] gave an EC50 [9] of 51800 nM, an EC50 [17] of 150000 nM and an EC50 [18] of 69000 nM.
For CC(=O)O[C@@]12C[C@@H](C)[C@@]3(O)[C@@H](C=C(CO)C[C@]4(O)C(=O)C(C)=C[C@@H]34)[C@@H]1C2(C)C [PROSTRATIN], the EC50 [12] was no more than 132 nM.
Compound Cc1cn([C@H]2C=C[C@@H](CO)O2)c(=O)[nH]c1=O [STAVUDINE] has an EC50 [16] of 60 nM and an EC50 [9] of 60 nM.
For C=C1C(=O)[C@]23C[C@H]1CC[C@H]2[C@]1(C)CCC[C@@](C)(C(=O)O)[C@H]1C[C@@H]3OC(C)=O [XYLOPINIC ACID], the EC50 [12] was no more than 900 nM.
With Nc1ccn([C@H]2CC[C@@H](CO)O2)c(=O)n1 [ZALCITABINE] the selectivity ratio [8] was 200, the EC50 [16] was 1 nM and the EC50 [9] was 1 nM. It also gave a selectivity ratio [13] of 200.
Cc1cn([C@H]2C[C@H](N=[N+]=[N-])[C@@H](CO)O2)c(=O)[nH]c1=O [ZIDOVUDINE] showed a selectivity ratio [8] greater than 1000, an EC50 [16] of 1 nM and an EC50 [9] of 1 nM. For the same compound, the selectivity ratio [13] was greater than 1000.
